Values joined by “and” are separate entries in the source; they are usually repeats but may differ in a detail not shown here. Identical values can stand only once.
What was measured:
[1] = molecular target: ApoE4; parameters: method as in PMID 30933499; conditions: experimental ApoE4 binding Kd reported by AbbVie team; read-out: NMR Kd; cited from earlier work
[2] = molecular target: T1, human recombinant ApoE3 (Homo sapiens, UniProt P02649); experiment: Surface plasmon resonance (SPR) binding, ApoE3; conditions: Biacore T200
T1 construct: purchased PeproTech
T1 sequence (P02649 19-317): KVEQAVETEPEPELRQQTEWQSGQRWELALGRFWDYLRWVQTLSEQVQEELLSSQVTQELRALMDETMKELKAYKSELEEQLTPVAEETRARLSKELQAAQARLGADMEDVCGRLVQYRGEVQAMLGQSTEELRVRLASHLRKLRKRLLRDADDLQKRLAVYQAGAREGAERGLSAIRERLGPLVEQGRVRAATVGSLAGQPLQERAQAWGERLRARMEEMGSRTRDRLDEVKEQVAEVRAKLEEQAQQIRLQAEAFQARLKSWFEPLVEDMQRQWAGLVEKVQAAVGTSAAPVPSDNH
Excerpt: (§1) The top virtual hit Isobavachin was further subjected to surface plasmon resonance (SPR) analysis using Biacore T200 (Cytiva, Marlborough, MA, USA) to determine its binding constants with both the ApoE3 and ApoE4 proteins. Together with the human recombinant ApoE3 and ApoE4 proteins, a negative control protein 2′-deoxynucleoside 5′-phosphate N-hydrolase (His-Sumo-DNPH1) was also included in the SPR analysis. The His-Sumo-DNPH1 is structurally unrelated to ApoE proteins, while having a similar size as ApoE proteins (~30 KDa).
(§2) The biophysical binding analysis of ligands with ApoE3 and ApoE4 proteins was carried out using the SPR technique. Human recombinant ApoE3 or ApoE4 proteins were purchased from PeproTech (Cranbury, NJ, USA) and reconstituted according to the manufacturer’s instructions. The negative control protein was His-Sumo-DNPH1 (2′-deoxynucleoside 5′-phosphate N-hydrolase 1), produced in-house in E. coli by The Wistar Institute, Philadelphia. The proteins were covalently attached to a carboxymethyl dextran sensor chip (CMD700M, from Xantec bioanalytics, Düsseldorf, Germany) using standard amine coupling in HEPES buffered saline. The chip is first conditioned for 180 s at 10 µL/min with 1 M NaCl, 0.1 mM Na Borate, pH 9.0, and then activated with 250 mM EDC/100 mM NHS for 600 s at 10 µL/min. The ApoE3/4 and DNPH1 proteins diluted in 10 mM sodium acetate (pH 5.5 and 4.0, respectively) were injected and immobilized on respective flow cells. After immobilization, the remaining activated sites were blocked with 1 M ethanolamine at 10 µL/min for 180 s. Test compounds (purchased from Cayman Chemical (Ann Arbor, MI, USA) and MedChemExpress (Monmouth Junction, NJ, USA)) were first diluted in pure DMSO, which were then further diluted in the running buffer without DMSO (10 mM HEPES, pH 7.4, 150 mM NaCl, 0.005% Tween20) to match the DMSO concentrations of the sample and the running buffer. The association and dissociation times were 60s and 120s, respectively, and the flow rate was 30 µL/min. After each compound injection, the needle was washed in 50% DMSO to reduce compound carry-over. Solvent correction cycles were also included to correct for bulk refractive index changes associated with DMSO.

[3] = molecular target: T2, human recombinant ApoE4 (Homo sapiens, UniProt P02649, C130R); experiment: Surface plasmon resonance (SPR) binding, ApoE4; conditions: Biacore T200
T2 construct: purchased PeproTech
T2 sequence (P02649 19-317 C130R): as the sequence (P02649 19-317) above, with C112R counted along it
Excerpt: as §1, §2

[4] = molecular target: T3, His-Sumo-DNPH1 (2′-deoxynucleoside 5′-phosphate N-hydrolase 1) (Homo sapiens, UniProt O43598); experiment: Surface plasmon resonance (SPR) binding, negative control protein
T3 construct: made in house; host or cells: E. coli
T3 sequence (O43598 1-174): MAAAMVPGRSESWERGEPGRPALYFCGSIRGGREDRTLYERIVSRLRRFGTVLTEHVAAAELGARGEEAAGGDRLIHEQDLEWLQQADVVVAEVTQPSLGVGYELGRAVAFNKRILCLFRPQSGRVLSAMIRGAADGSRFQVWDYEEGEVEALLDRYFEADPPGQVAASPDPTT
Excerpt: as §1, §2

[5] = parameters: method as in PMID 29425649; conditions: cited from earlier work

| Kd [2] | Kd [3] | Kd [4] [µM] | DNPH1 Kd [4] | Compound | Kd [1] [µM] | blood–brain barrier (BBB) penetration [5] |
| --- | --- | --- | --- | --- | --- | --- |
| – | – | – | – | CC(=O)NCc1ccc(-c2cc(Cl)cc(C3(C(=N)N)CCC3)c2)cc1 [compound 155563897] | 20 ± 3 | – |
| > 100 µM | > 100 µM | > 100 | – | O=c1c(-c2ccc(O)cc2)coc2cc(O)ccc12 [Daidzein] | – | – |
| – | – | – | – | CCNS(=O)(=O)c1ccc(-c2cc(Cl)cc(C3(C(=N)N)CCC3)c2)cc1 [compound 155552638] | 20 ± 4 | – |
| > 100 µM | 77 µM | > 100 | – | CC(C)=CCc1cc([C@@H]2CC(=O)c3ccc(O)c(CC=C(C)C)c3O2)ccc1O [Glabrol] | – | – |
| 59 µM | 64 µM | – | No binding | CC(C)=CCc1cc2c(cc1O)O[C@H](c1ccc(O)cc1)CC2=O [Bavachin] | – | – |
| – | – | – | – | N=C(N)C1(c2cc(Cl)cc(-c3ccc(CO)c(Cl)c3)c2)CCC1 [compound 155557185] | 8 ± 3 | – |
| – | – | – | – | N=C(N)C1(c2cc(Cl)cc(-c3ccccc3)c2)CCC1 [compound 155530661] | 230 ± 24 | – |
| 38 µM | 40 µM | > 100 | – | COc1cc(O)c(CC=C(C)C)c2c1C(=O)CC(c1ccc(O)cc1)O2 (stereo not shown) [Isoxanthohumol] | – | – |
| – | – | – | – | N=C(N)C1(c2cccc(Cl)c2)CCC1 [compound 83673143] | 900 ± 108 | – |
| > 100 µM | > 100 µM | > 100 | – | CC(C)=CCc1c(-c2ccc(O)cc2O)oc2c(CC=C(C)C)c(O)cc(O)c2c1=O [Mulberrin] | – | – |
| > 100 µM | > 100 µM | 69 | – | CC(C)=CCc1c(-c2ccc(O)cc2O)oc2c3c(cc(O)c2c1=O)OC(C)(C)C=C3 [Morusin] | – | – |
| – | – | – | – | CC(C)(O)c1ccc(-c2cc(Cl)cc(C3(C(=N)N)CCC3)c2)cc1 [compound 137796780] | 30 ± 4 | – |
| ~0.62 µM and 0.62 µM | ~0.54 µM and 0.54 µM | > 100 | – | CC(C)=CCc1c(O)ccc2c1O[C@H](c1ccc(O)cc1)CC2=O [Isobavachin] | – | readily penetrate |

| Compound | Kd [2] | Kd [3] | Kd [4] [µM] | DNPH1 Kd [4] | Kd [1] [µM] | blood–brain barrier (BBB) penetration [5] |
| --- | --- | --- | --- | --- | --- | --- |
| Oc1ccc(C2=Cc3ccc(O)cc3OC2)cc1 [Idronoxil] | > 100 µM | > 100 µM | > 100 | – | – | – |
| O=c1c(-c2ccc(O)cc2)coc2cc(O)cc(O)c12 [Genistein] | > 100 µM | > 100 µM | > 100 | – | – | – |
